Results taken from publication PMC4843953, “Eukaryotic elongation factor 2 kinase regulates the synthesis of microtubule‐related proteins in neurons” (Journal of Neurochemistry, 2015).

Tests used:
Assay type in all cases: cell-based, mice
newly synthesized PPP1CC = assay: Newly synthesized protein, AHA labeling, streptavidin isolation and western blot; settings: AHA labeling 1 h; 2 × 2 ANOVA
Protocol: (§1) Neurons were starved of Met for 30 min in Met‐free neurobasal medium and then labeled for 1 h in the presence of 2 mM AHA. After labeling, neurons were washed three times in ice cold phosphate‐buffered saline (PBS) and then lysed [50 mM Tris‐HCl, 50 mM β‐glycerophosphate, 1 mM EGTA, 1 mM EDTA, 1% Triton‐X, 2 × protease inhibitors (Roche Molecular Biochemicals, Indianapolis, IN, USA)] on ice. The lysate was centrifuged at 14 000 g for 10 min at 4°C and the supernatant was used for click‐chemistry using a biotin‐alkyne (B10185; Invitrogen, Carlsbad, CA, USA) and the protein reaction kit (C10276; Invitrogen) so that only newly synthesized proteins are tagged with biotin. Un‐reacted biotin was removed via gel‐filtration (GE; PD MiniTrap G‐25) using PBS‐T (0.01% Tween) as flow‐through. […]
(§2) Immunoblot data were quantified using LICOR software (version 3.0, Lincoln, NE, USA). Data were analyzed using two‐way ANOVAs. […]
(§3) Figure 3 Confirmation of two eEF2K targets identified via stable isotope labeling of amino acids in cell culture (SILAC)/bio‐orthogonal non‐canonical amino acid tagging (BONCAT). […] (c) Quantification of western blot data. *p < 0.01 via 2 × 2 (bicuculline × eEF2K inhibitor) ANOVA; n = 8–9.

newly synthesized NSF = assay: as above; settings: AHA labeling 1 h; 2 × 2 ANOVA
Protocol: as §1, §2, §3

eEF2 phosphorylation = assay: p-eEF2 levels in primary cortical neurons (immunoblot)
Source text: Primary neuronal cortical cultures were isolated from P0 or P1 C57BL/6J mice, or eEF2K‐WT or KO mice of either sex as previously described (Wong et al. 2005; Kenney et al. 2015). eEF2K mice were generated by Taconic Biosciences, Cranbury, NJ, USA; all mice were bred from colonies maintained at the Southampton General Hospital. All procedures involving mice were done in accordance with United Kingdom Animals (Scientific Procedures) Act 1986 and approved by the University of Southampton.
Figure 1 Combining pharmacological and genetic strategies with stable isotope labeling of amino acids in cell culture (SILAC)/bio‐orthogonal non‐canonical amino acid tagging (BONCAT) labeling to identify proteins whose synthesis is regulated by eEF2K. (a) Top, the effect of bicuculline administration on p‐eEF2 levels. […] Bottom, examination of the effect of bicuculline on p‐eEF2 levels in neurons from eEF2K‐WT or KO mice. Blots are representative of three to four independent experimental replicates. (b) Experimental designs for combined SILAC/BONCAT labeling to identify proteins whose synthesis are affected by eEF2K inhibition. […] Protein localization was determined using DAVID (Huang et al. 2009), or where DAVID lacked annotation, NCBI.
as §2

[1] = test system: mRNA levels (Calm, Nsf, Ppp1 cc, Kif5a, Map2, Map1b, Arc); assay: qRT-PCR of total mRNA levels in primary cortical neurons; settings: bicuculline 50 μM, 60 min; p < 0.001
Protocol: Neurons were treated with bicuculline (50 μM) or vehicle dimethylsulfoxide for 60 min prior to lysis. JAN‐452 or JAN‐384 was administered 30 min prior to bicuculline/vehicle. RNA was purified from cultures using the GeneJET RNA purification kit (K0731; Thermo Fisher, Waltham, MA, USA) and QIAshredder spin columns (79656; Qiagen, Valencia, CA, USA). One μg of RNA was reverse transcribed using the ImProm‐II reverse transcription system (Promega, Madison, WI, USA). qPCR was performed with 1 μL of cDNA using the GoTaq qPCR master mix (A6001; Promega) on a StepOne real‐time PCR system (Life Technologies, Grand Island, NY, USA). PCR conditions were as follows: 95°C for 2 min followed by 40 cycles of 95°C for 15 s and 60°C for 45 s. Median Ct values from samples run in triplicate were used for analysis using the ΔΔCt method with Gapdh as the control. Prior to use in experiments, all primer pairs were determined to be efficient (100 ± 10%) and yield only one appropriately sized product based on melt‐curve analysis and agarose gel electrophoresis. Primers were as follows: Calm: 5′‐[…]‐3′ and 5′‐[…]‐3′; Nsf: 5′‐ […]‐3′ and 5′‐[…]‐3′; Ppp1 cc: 5′‐ […]‐3′ and 5′‐[…]‐3′; Kif5a: 5′‐ […]‐3′ and 5′‐[…]‐3′; Map2: 5′‐ […]‐3′ and 5′‐[…]‐3′; Map1b: 5′‐ CGGACAGTGCTTTGAGAAC‐3′ and 5‐GTGAGGCTGGCTTTGTTG‐3′; Gapdh: 5′‐[…]‐3′ and 5′‐[…]‐3′; Arc: 5′‐[…]‐3′ and 5′‐[…]‐3′. […]

## CN1CCc2cc3c(cc2[C@H]1[C@@H]1OC(=O)c2c1ccc1c2OCO1)OCO3 [bicuculline]
Newly synthesized PPP1CC
  amount of newly synthesized PPP1CC: no effect
Newly synthesized NSF
  amount of newly synthesized NSF: no effect
eEF2 phosphorylation; eEF2K-KO neurons, completely devoid of eEF2 phosphorylation
  eEF2 phosphorylation in neurons from eEF2K-KO mice: did not affect
eEF2 phosphorylation; primary cortical neurons, back to baseline levels after 60 min
  p-eEF2 level after bicuculline administration: rapid increase
[1]
  Arc mRNA: large increase
